According to patent US20040034082A1, “Utilization of pyrazoline derivatives in the preparation of a medicament for the prevention and/or treatment of proliferative cell diseases” (priority 2001, published 2004):

Structure (SMILES) | melting point [°C]
COc1ccc(C2CC(C(F)(F)F)=NN2c2ccc(S(N)(=O)=O)cc2)c(F)c1 (stereo not shown) [Example 47] | 157 to 159
Cc1ccc(C2CC(C(F)(F)F)=NN2c2ccc(S(N)(=O)=O)cc2)cc1 (stereo not shown) [Example 1] | 140 to 143
CC1=NN(c2ccc(S(C)(=O)=O)cc2)C(c2ccc(C(F)(F)F)cc2)C1 (stereo not shown) [Example 33] | 136 to 138
NS(=O)(=O)c1ccc(N2N=CCC2c2ccccc2)cc1 (stereo not shown) [Example 31] | 206 to 208
Cc1ccc(C2CC(C(F)(F)F)=NN2c2ccc(S(N)(=O)=O)cc2)c(C)c1 (stereo not shown) [Example 24] | 158 to 160
CS(=O)(=O)c1ccc(C2CC(C(F)(F)F)=NN2c2ccccc2)cc1 (stereo not shown) [Example 66] | 114 to 115
CS(=O)(=O)c1ccc(C2CC(C(F)(F)F)=NN2c2ccc(Cl)cc2)cc1 (stereo not shown) [Example 65] | 117 to 121
NS(=O)(=O)c1ccc(N2N=C(C(F)(F)F)CC2c2ccc(F)c(Cl)c2)cc1 (stereo not shown) [Example 21] | 171 to 173
Cc1ccc(C2CC(C(F)(F)F)=NN2c2ccc(S(C)(=O)=O)cc2)cc1 (stereo not shown) [Example 7] | 115 to 119
NS(=O)(=O)c1ccc(N2N=C(C(F)(F)F)CC2c2ccc(Cl)cc2F)cc1 (stereo not shown) [Example 61] | 180 to 185
CC1=NN(c2ccc(S(N)(=O)=O)cc2)C(c2ccc(C)cc2)C1 (stereo not shown) [Example 28] | 195 to 197
NS(=O)(=O)c1ccc(N2N=C(C(F)F)CC2c2ccc(F)cc2F)cc1 (stereo not shown) [Example 57] | 157 to 160
NS(=O)(=O)c1ccc(N2N=C(C(F)(F)F)CC2c2ccc(F)c(F)c2)cc1 (stereo not shown) [Example 11] | 153 to 155
Cc1ccc(C2CC(C(=O)O)=NN2c2ccc(S(N)(=O)=O)cc2)cc1 (stereo not shown) [Example 34] | 172 to 176
NS(=O)(=O)c1ccc(N2N=C(C(F)(F)F)CC2c2ccc(C(F)(F)F)cc2C(F)(F)F)cc1 (stereo not shown) [Example 54] | 212 to 214
Cc1ccc(C2CC(C(F)(F)F)=NN2c2ccc(S(N)(=O)=O)cc2)c(F)c1 (stereo not shown) [Example 63] | 166 to 167

Structure (SMILES) | melting point [°C]
CS(=O)(=O)c1ccc(N2N=C(C(F)(F)F)CC2c2ccc(F)cc2)cc1 (stereo not shown) [Example 9] | 121 to 122
NC(=O)C1=NN(c2ccc(S(N)(=O)=O)cc2)C(c2ccccc2)C1 (stereo not shown) [Example 40] | 200 to 205
COc1ccc(C2CC(C(F)(F)F)=NN2c2ccc(S(N)(=O)=O)cc2)cc1 (stereo not shown) [Example 20] | 125 to 128
NS(=O)(=O)c1ccc(C2CC(C(F)(F)F)=NN2c2ccc(F)cc2)cc1 (stereo not shown) [Example 76] | 138 to 140
CS(=O)(=O)c1ccc(N2N=C(C(F)(F)F)CC2c2ccccc2)cc1 (stereo not shown) [Example 6] | 137 to 140
Cc1ccc(C2CC(C(N)=O)=NN2c2ccc(S(N)(=O)=O)cc2)cc1 (stereo not shown) [Example 41] | 210 to 215
CS(=O)(=O)c1ccc(C2CC(C(F)(F)F)=NN2c2ccccc2F)cc1 (stereo not shown) [Example 67] | 98 to 99
NS(=O)(=O)c1ccc(N2N=C(C(F)(F)F)CC2c2ccc(F)c(F)c2F)cc1 (stereo not shown) [Example 51] | 159 to 161
CS(=O)(=O)c1ccc(N2N=C(C(F)(F)F)CC2c2ccc(F)c(F)c2)cc1 (stereo not shown) [Example 25] | 132 to 135
CC1(c2ccccc2)CC(C(F)(F)F)=NN1c1ccc(S(N)(=O)=O)cc1 (stereo not shown) [Example 2] | 60 to 66
Cc1ccc(C2CC(C(N)=O)=NN2c2ccc(S(C)(=O)=O)cc2)cc1 (stereo not shown) [Example 42] | 128 to 132
NS(=O)(=O)c1ccc(N2N=C(C(F)(F)F)CC2c2ccc(F)cc2Cl)cc1 (stereo not shown) [Example 52] | 167 to 169
Cc1cc(Cl)ccc1N1N=C(C(F)(F)F)CC1c1ccc(S(C)(=O)=O)cc1 (stereo not shown) [Example 68] | 104 to 108
Cc1ccccc1C1CC(C(F)(F)F)=NN1c1ccc(S(N)(=O)=O)cc1 (stereo not shown) [Example 14] | 124 to 126
CC1=NN(c2ccc(S(N)(=O)=O)cc2)C(c2ccc(F)cc2)C1 (stereo not shown) [Example 26] | 206 to 208
